Marks after values point to notes of the source that are not given here. Side chains are listed from the residue outwards. Ends that are not written are not given here.
Columns and labels:
[1] = tested on: NO free radicals (acetylcholine induced vasodilation); experiment: NO radical scavenging: inhibition of acetylcholine induced vasodilation of aorta rings; set-up: species or system Wistar rats; settings: final concentration 5×10^−6 M; n = 6
Protocol: Male Wistar rats weighing 250 to 300 g were starved for 12 h before operation with free access to drinking water, and sacrificed by cervical dislocation. Thoracotomy was immediately carried out and thoracic aorta was taken out, connective tissues attached thereto were dissected, and vessels were cut into aorta rings with a length of 3 to 5 mm and placed into a perfusion bath. The bath contained 15 ml Krebs-Henseleit solution and was kept at a constant temperature of 37° C., into which 95% O2-5% CO2 gas was charged. The anchor to which the aorta rings were immobilized was connected to a tension transducer, and vasomotion curves were recorded on a dual-trace recorder at a paper speed of 1 mm/min. With the static tension adjusted to 1.0 g and 30 min of equilibration, norepinephrine at a final concentration of 10^−8 M was dosed to allow the aorta to contract for preexcitation. Norepinephrine was washed off, followed by 30 min of equilibration, and norepinephrine was added into the bath to a final concentration of 10^−8 M. When the contraction tension was steady at a plateau level, 20 μl normal saline (blank), a 20 μl solution of any one of compounds Ia to Il in normal saline (at a final concentration of 5×10^−6 M), or a 20 μl solution of NO free radical scavenger (1,3-dioxo-2-(4′-oxyacetoxyl-phenyl)-4,4,5,5-tetramethylimidazoline, TMMZ) in normal saline (at a final concentration of 5×10^−6 M) was added into the bath. When stabilized, a 20 μl acetylcholine in normal saline was added (at a final concentration of 10^−6 M). The NO scavenging ability of the drugs was expressed as a percentage of inhibition of acetylcholine induced vasodilation.

thrombus = experiment: In vivo anti-thrombus experiment (arteriovenous cannula with thread); set-up: species or system SD rats; settings: 0.1 μmol/kg by gavage; n = 11
Protocol: SD rats (male, 220 to 230 g) were randomly divided into groups with 11 rats in each group. The rats were fed at a resting state for 1 day and fasted overnight. […] After 30 min, the rats were anesthetized with a 20% urethane solution, and the right carotid artery and the left carotid vein were dissected. A cannula was filled with sodium heparin in normal saline, and one end thereof was inserted into the left vein, while the other end was injected with a certain amount of sodium heparin for anticoagulation with an injector and then inserted into the right artery. Blood flew from the right artery to the left vein through the polyethylene tubing, and the thread attached with thrombus was taken out after 15 min and the weight thereof was recorded. The wet thrombus weight was determined by subtracting the thread weight from the total weight.

rats with stroke = experiment: Immediate treatment after stroke onset, neural function scores (Zealonga method, 0 no loss to 5 death); assay type: in vivo, SD rats; settings: 0.1 μmol/kg, 24 h after awake, n = 10
Protocol: The in vivo anti-stroke activity of the present invention was represented by neural function scores, with a lower score indicating higher activity. A 10% chloral hydrate solution (400 mg/kg) was injected intraperitoneally into SD male rats (250-300 g) for anesthesia. An open incision of 2 cm in length was longitudinally made slightly on the right to the center of the neck, and the right common carotid artery trunk, carotid external artery and carotid internal artery were dissected along the margin of the inner side of sternocleidomastoid muscles. The open incisions in the carotid internal artery and the proximal end of the common carotid artery were occluded respectively with noninvasive arterial clips. A small open incision was made across the carotid external artery, and the distal end of the carotid external artery was ligated. The arterial clip at the proximal end of the carotid external artery was released, and 10 μl blood was drawn before the proximal end of the common carotid artery was again occluded with the noninvasive arterial clip. The 10 μl blood drawn was placed in a 1 mL EP vial and kept at RT for 30 min for coagulation of blood, and then transferred into a −20° C. refrigerator for 1 h to allow coagulation. After 1 h, the blood clots were taken out, into which 1 mL saline was added, and then broken into uniform microthrombus by using a steel spatula. The microthrombus suspension was then transferred to a 1 mL injector until use. At the same time when the clip on the carotid internal artery of the rat was released, 1 mL thrombus suspension in the injector was slowly injected from the carotid external artery of the rat to its proximal end, and the suspension was injected into the brain of the rat through the carotid internal artery. Subsequently, the proximal end of the carotid external artery was ligated, the arterial clips on the carotid internal artery and the common carotid artery were released, and blood flow was restored. The jugular common vein of the rats was dissected. The vein was immediately ligated, 3 drops of penicillin was dropped at the wound site, the wound was stitched up, and the animals were allowed to come around, as the sham operation group. Or injection of urokinase in normal saline (positive control group, at a dosage of 20000 IU/kg), normal saline (blank control group, at a dosage of 3 ml/kg), TMMZ in normal saline (component control group, at a dosage of 1 μmol/kg), a thrombolytic peptide ARPAK (SEQ. ID NO. 4), GRPAK (SEQ. ID NO. 5), RPAK (SEQ. ID NO. 3) or PAK in normal saline (component control group, at a dosage of 1 μmol/kg), or one of compounds Ia-Il in normal saline (at a dosage of 0.1 μmol/kg) was carried out. 24 h after the rats were awake, the degree of damage in the neural function was evaluated by the Zealonga method. A score of 0 indicated no sign of loss in neural function, 1 indicated the front limbs on the undamaged side could not stretch out, 2 indicated walking toward the undamaged side, 3 indicated tail-chasing walking in circles toward the undamaged side, 4 indicated involuntary walking with disturbance of consciousness, and 5 indicated death.

Substance	Percentage of inhibition (Mean ± SD %) of vasodilatation induced by acetylcholine [1] [%]	Wet weight of thrombus (Mean ± SD mg) (thrombus) [mg]	Neural function scores (Mean ± SD) (rats with stroke)
1,3-dioxo-2-{4′-oxyacetyl-[N^ω-(Ala-Arg-Pro-Ala-Lys)-Lys-Arg-Gly-Asp-Phe]phenyl}-4,4,5,5-tetramethylimidazoline [Ic]	21.78	20.50 ± 2.26	0.89 ± 1.36 ^c
1,3-dioxo-2-{4′-oxyacetyl-[N^ω-(Ala-Arg-Pro-Ala-Lys)-Lys-Arg-Gly-Asp-Ser]phenyl}-4,4,5,5-tetramethylimidazoline [Ia]	22.82	24.32 ± 2.10	1.00 ± 1.01 ^b
1,3-dioxo-2-{4′-oxyacetyl-[N^ω-(Ala-Arg-Pro-Ala-Lys)-Lys-Arg-Gly-Asp-Val]phenyl}-4,4,5,5-tetramethylimidazoline [Ib]	–	20.14 ± 2.45	0.56 ± 1.01 ^c
1,3-dioxo-2-{4′-oxyacetyl-[N^ω-(Arg-Pro-Ala-Lys)-Lys-Arg-Gly-Asp-Phe]phenyl}-4,4,5,5-tetramethylimidazoline [Ii]	13.75	17.79 ± 2.02	0.87 ± 1.05 ^c
1,3-dioxo-2-{4′-oxyacetyl-[N^ω-(Arg-Pro-Ala-Lys)-Lys-Arg-Gly-Asp-Ser]phenyl}-4,4,5,5-tetramethylimidazoline [Ig]	24.40	17.89 ± 2.05	1.00 ± 1.19 ^b
1,3-dioxo-2-{4′-oxyacetyl-[N^ω-(Arg-Pro-Ala-Lys)-Lys-Arg-Gly-Asp-Val]phenyl}-4,4,5,5-tetramethylimidazoline [Ih]	–	18.24 ± 1.89	1.33 ± 1.22 ^b
1,3-dioxo-2-{4′-oxyacetyl-[N^ω-(Gly-Arg-Pro-Ala-Lys)-Lys-Arg-Gly-Asp-Phe]phenyl}-4,4,5,5-tetramethylimidazoline [If]	–	17.99 ± 2.47	0.60 ± 0.84 ^c
1,3-dioxo-2-{4′-oxyacetyl-[N^ω-(Gly-Arg-Pro-Ala-Lys)-Lys-Arg-Gly-Asp-Ser]phenyl}-4,4,5,5-tetramethylimidazoline	17.60	19.46 ± 1.84	1.22 ± 1.32 ^b
1,3-dioxo-2-{4′-oxyacetyl-[N^ω-(Pro-Ala-Lys)-Lys-Arg-Gly-Asp-Phe]phenyl}-4,4,5,5-tetramethylimidazoline (K([Lys-Ala-Pro])RGDF; not fully specified (N-terminus); also: 4′-oxyacetylphenyl-1,3-dioxo-4,4,5,5-tetramethylimidazoline (nitronyl nitroxide) conjugate, attachment amine not clear) [Il]	22.62	19.32 ± 2.56	0.50 ± 0.53 ^c
1,3-dioxo-2-{4′-oxyacetyl-[N^ω-(Pro-Ala-Lys)-Lys-Arg-Gly-Asp-Ser]phenyl}-4,4,5,5-tetramethylimidazoline (K([Lys-Ala-Pro])RGDS; not fully specified (N-terminus); also: 4′-oxyacetylphenyl-1,3-dioxo-4,4,5,5-tetramethylimidazoline (nitronyl nitroxide) conjugate, attachment amine not clear) [Ij]	27.22	19.45 ± 1.79	0.90 ± 1.10 ^c
1,3-dioxo-2-{4′-oxyacetyl-[N^ω-(Pro-Ala-Lys)-Lys-Arg-Gly-Asp-Val]phenyl}-4,4,5,5-tetramethylimidazoline (K([Lys-Ala-Pro])RGDV; not fully specified (N-terminus); also: 4′-oxyacetylphenyl-1,3-dioxo-4,4,5,5-tetramethylimidazoline (nitronyl nitroxide) conjugate, attachment amine not clear) [Ik]	11.13	22.25 ± 2.25	0.56 ± 0.53 ^c
